From ChEMBL document CHEMBL4014354, “2'-Chloro,2'-fluoro Ribonucleotide Prodrugs with Potent Pan-genotypic Activity against Hepatitis C Virus Replication in Culture” (J Med Chem, 2017)

Tests used:
[1] = Inhibition of C-terminal His-tagged HCV genotype 1b NS5Bdelta21 expressed in Escherichia coli BL21 (DE3) using synthetic 20mer RNA/[32P]GpG as template/primer after 90 mins by PAGE analysis; parameters: species or system Hepatitis C virus subtype 1b
DNA polymerase beta = DNA polymerase beta (Homo sapiens, UniProt P06746); assay: Inhibition of human DNA polymerase beta using 5' end radiolabeled 24nt DNA/48nt DNA as primer/template after 5 mins by PAGE analysis
[2] = Inhibition of RNA polymerase 2 isolated from human HeLa cell nuclear extract assessed as decrease in incorporation of P32-alpha-CTP after 2 hrs by scintillation counting method; assay type: cell-free
[3] = Inhibition of wild type HCV genotype 4a NS5B; parameters: species or system Hepatitis C virus subtype 4a
[4] = target: T1, DNA polymerase alpha catalytic subunit (Homo sapiens, UniProt P09884); assay: Inhibition of human DNA polymerase alpha using 5' end radiolabeled 24nt DNA/48nt DNA as primer/template after 5 mins by PAGE analysis
T1 sequence (P09884 whole entry): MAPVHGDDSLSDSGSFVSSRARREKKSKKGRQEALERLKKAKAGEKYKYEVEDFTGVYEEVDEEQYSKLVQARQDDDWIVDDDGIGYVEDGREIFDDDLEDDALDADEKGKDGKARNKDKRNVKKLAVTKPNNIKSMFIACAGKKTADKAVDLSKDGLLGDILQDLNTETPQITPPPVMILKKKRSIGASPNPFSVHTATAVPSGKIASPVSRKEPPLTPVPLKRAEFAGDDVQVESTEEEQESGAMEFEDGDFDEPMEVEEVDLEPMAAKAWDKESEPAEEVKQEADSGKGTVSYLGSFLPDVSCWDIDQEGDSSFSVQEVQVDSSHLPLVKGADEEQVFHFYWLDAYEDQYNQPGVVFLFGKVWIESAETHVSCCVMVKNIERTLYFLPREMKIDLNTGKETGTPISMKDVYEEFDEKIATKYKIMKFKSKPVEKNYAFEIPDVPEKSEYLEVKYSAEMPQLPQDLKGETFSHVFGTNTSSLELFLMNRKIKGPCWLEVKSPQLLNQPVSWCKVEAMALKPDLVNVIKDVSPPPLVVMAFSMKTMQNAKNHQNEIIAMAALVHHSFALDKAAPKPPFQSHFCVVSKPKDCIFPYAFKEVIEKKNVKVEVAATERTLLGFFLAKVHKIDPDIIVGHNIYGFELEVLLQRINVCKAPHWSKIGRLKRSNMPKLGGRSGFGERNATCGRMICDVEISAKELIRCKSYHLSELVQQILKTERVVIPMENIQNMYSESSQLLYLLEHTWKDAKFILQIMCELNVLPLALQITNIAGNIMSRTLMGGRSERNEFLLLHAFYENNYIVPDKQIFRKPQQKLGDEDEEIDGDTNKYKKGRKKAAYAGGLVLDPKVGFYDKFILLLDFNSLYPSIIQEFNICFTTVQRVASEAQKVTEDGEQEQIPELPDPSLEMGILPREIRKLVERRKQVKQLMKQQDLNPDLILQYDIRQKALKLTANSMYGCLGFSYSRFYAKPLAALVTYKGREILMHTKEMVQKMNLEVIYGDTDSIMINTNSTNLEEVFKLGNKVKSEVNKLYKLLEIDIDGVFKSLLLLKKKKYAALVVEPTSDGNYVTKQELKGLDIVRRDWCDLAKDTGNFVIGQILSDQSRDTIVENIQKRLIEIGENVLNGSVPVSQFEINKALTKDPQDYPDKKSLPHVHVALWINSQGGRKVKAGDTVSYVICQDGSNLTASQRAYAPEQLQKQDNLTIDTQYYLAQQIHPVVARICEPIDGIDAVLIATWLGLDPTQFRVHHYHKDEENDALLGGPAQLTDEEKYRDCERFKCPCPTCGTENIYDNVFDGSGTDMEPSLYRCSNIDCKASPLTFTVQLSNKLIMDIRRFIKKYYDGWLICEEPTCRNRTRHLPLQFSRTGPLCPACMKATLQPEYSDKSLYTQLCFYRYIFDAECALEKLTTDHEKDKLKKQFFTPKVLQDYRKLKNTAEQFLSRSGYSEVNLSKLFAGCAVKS

[5] = Inhibition of human DNA polymerase gamma using 5' end radiolabeled 24nt DNA/36nt DNA as primer/template after 120 mins by PAGE analysis
[6] = Inhibition of wild type HCV genotype 2a NS5B; parameters: species or system Hepatitis C virus subtype 2a
[7] = target: DNA-directed RNA polymerase, mitochondrial (Homo sapiens) (UniProt O00411); assay: Inhibition of human POLRMT using 5'-P32-RNA/DNA hybrid assessed as incorporation of UTP at 100 uM after 2 hrs by scintillation counting method relative to control; parameters: scale not given: the % may be the effect or the level left
[8] = Inhibition of HCV genotype 1b NS5B S96T mutant; parameters: species or system Hepatitis C virus subtype 1b
Cytochrome P450 2D6 = Cytochrome P450 2D6 (Homo sapiens, UniProt P10635); assay: Inhibition of human CYP2D6 using quinidine […]; assay type: ADME
[9] = tested on: cytochrome c oxidase subunit 2 DNA (mitochondrial DNA) levels; assay: in vitro; settings: human, HepG2 cells
Hepatitis C virus [10] = assay: Antiviral activity against HCV genotype 3a infected in human HuH7 cells assessed as inhibition of viral RNA replication after 96 hrs by RT-PCR method; assay type: functional, cell-based, Hepacivirus hominis; settings: Huh-7, 96 h
[11] = tested on: cytochrome c oxidase subunit 2 DNA (mitochondrial DNA) levels; assay: Mitochondrial toxicity in human HepG2 cells assessed as inhibition of cytochrome c oxidase subunit 2 DNA levels measured on day 14 by RT-PCR method; assay type: cell-based
[12] = tested on: cytochrome c oxidase subunit 2 DNA (mitochondrial DNA) levels; assay: Mitochondrial toxicity in human HepG2 cells assessed as inhibition of cytochrome c oxidase subunit 2 DNA levels at 25 uM measured on day 14 by RT-PCR method relative to nuclear beta-actin DNA levels; assay type: cell-based
HepG2 [13] = assay: Mitochondrial toxicity in human HepG2 cells assessed as cytochrome c oxidase subunit 2 DNA levels at 25 uM measured on day 14 by RT-PCR method relative to nuclear beta-actin DNA levels; assay type: cell-based; settings: hepg2, 25 µM
[14] = Cytotoxicity against African green monkey Vero cells assessed as inhibition of cell proliferation after 3 days by MTT assay; assay type: cell-based; settings: chlorocebus sabaeus
Hepatitis C virus [15] = assay: Antiviral activity against HCV genotype 1a infected in human HuH7 cells assessed as inhibition of viral RNA replication after 96 hrs by RT-PCR method; assay type: functional, cell-based, Hepacivirus hominis; settings: subtype 1a, Huh-7, 96 h
[16] = Cytotoxicity against human HuH7 cells assessed as inhibition of cell proliferation after 4 days by MTS assay; assay type: cell-based, Huh-7
HepG2 [17] = assay: Mitochondrial toxicity in human HepG2 cells assessed as cytochrome c oxidase subunit 2 DNA levels at 50 uM measured on day 14 by RT-PCR method relative to nuclear beta-actin DNA levels; assay type: cell-based; settings: hepg2, 50 µM
[18] = Cytotoxicity against human PBMC assessed as inhibition of cell proliferation after 5 days by MTT assay; assay type: cell-based
nuclear DNA levels [19] = assay: in vitro; settings: human, HepG2 cells
Hepatitis C virus [20] = assay: Antiviral activity against HCV genotype 4 infected in human HuH7 cells assessed as inhibition of viral RNA replication after 96 hrs by RT-PCR method; assay type: functional, cell-based, Hepacivirus hominis; settings: genotype 4, Huh-7, 96 h
Hepatitis C virus [21] = assay: Antiviral activity against HCV genotype 1b harboring wild type NS5B infected in human HuH7 cells assessed as inhibition of viral RNA replication after 5 days by RT-PCR method; assay type: functional, cell-based, Hepacivirus hominis; settings: Huh-7, 120 h
Hepatitis C virus [22] = assay: Antiviral activity against HCV genotype 1b harboring NS5B S282T mutant infected in human HuH7 cells assessed as inhibition of viral RNA replication after 4 days by luciferase reporter gene assay; assay type: functional, cell-based, Hepacivirus hominis; settings: Huh-7, 96 h
[23] = Cytotoxicity against human CEM cells assessed as inhibition of cell proliferation after 4 days by MTT assay; assay type: cell-based, CCRF-CEM
Cytochrome P450 3A4 = Cytochrome P450 3A4 (Homo sapiens, UniProt P08684); assay: Inhibition of human CYP3A4 using ketoconazole […]; assay type: ADME
HepG2 [24] = assay: Mitochondrial toxicity in human HepG2 cells assessed as cytochrome c oxidase subunit 2 DNA levels at 10 uM measured on day 14 by RT-PCR method relative to nuclear beta-actin DNA levels; settings: hepg2, 10 µM
nuclear DNA levels [25] = assay: Cytotoxicity against human HepG2 cells assessed as inhibition of nuclear DNA levels at 25 uM measured on day 14 by RT-PCR method relative to nuclear beta-actin DNA levels; assay type: cell-based; settings: read-out: INH
Hepatitis C virus [26] = assay: Selectivity ratio of EC90 for HCV genotype 1b harboring NS5B S282T mutant to EC90 for HCV genotype 1b harboring wild type NS5B; assay type: functional, Hepacivirus hominis
[27] = tested on: cytochrome c oxidase subunit 2 DNA (mitochondrial DNA) levels; assay: Mitochondrial toxicity in human HepG2 cells assessed as inhibition of cytochrome c oxidase subunit 2 DNA levels at 50 uM measured on day 14 by RT-PCR method relative to nuclear beta-actin DNA levels; assay type: cell-based
Hepatitis C virus [28] = assay: Antiviral activity against HCV genotype 2b infected in human HuH7 cells assessed as inhibition of viral RNA replication after 96 hrs by RT-PCR method; assay type: functional, cell-based, Hepacivirus hominis; settings: Huh-7, 96 h
Cytochrome P450 1A2 = target: T2, Cytochrome P450 1A2 (Homo sapiens, UniProt P05177); assay: Inhibition of human CYP1A2 using alpha-naphthoflavone […]; assay type: ADME
T2 sequence (P05177 whole entry): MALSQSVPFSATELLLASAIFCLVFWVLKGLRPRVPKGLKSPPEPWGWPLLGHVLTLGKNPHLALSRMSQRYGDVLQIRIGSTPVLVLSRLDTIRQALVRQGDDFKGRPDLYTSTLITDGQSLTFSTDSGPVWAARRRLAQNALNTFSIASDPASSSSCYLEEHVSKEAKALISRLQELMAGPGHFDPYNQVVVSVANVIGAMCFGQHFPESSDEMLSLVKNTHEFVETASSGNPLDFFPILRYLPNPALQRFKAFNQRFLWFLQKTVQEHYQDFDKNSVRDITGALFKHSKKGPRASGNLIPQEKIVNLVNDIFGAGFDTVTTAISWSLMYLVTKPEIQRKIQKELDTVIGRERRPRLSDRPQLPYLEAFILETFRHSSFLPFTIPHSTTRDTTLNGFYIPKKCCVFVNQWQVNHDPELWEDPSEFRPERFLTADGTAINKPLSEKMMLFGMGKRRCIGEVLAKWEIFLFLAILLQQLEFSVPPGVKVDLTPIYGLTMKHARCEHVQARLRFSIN

Cytochrome P450 2C9 = Cytochrome P450 2C9 (Homo sapiens, UniProt P11712); assay: Inhibition of human CYP2C9 using sulfaphenazole […]; assay type: ADME
Hepatitis C virus [29] = assay: Selectivity ratio of EC50 for HCV genotype 1b harboring NS5B S282T mutant to EC50 for HCV genotype 1b harboring wild type NS5B; assay type: functional, Hepacivirus hominis
Hepatitis C virus [30] = assay: Antiviral activity against HCV genotype 2a/k infected in human HuH7 cells assessed as inhibition of viral RNA replication after 96 hrs by RT-PCR method; assay type: functional, cell-based, Hepacivirus hominis; settings: Huh-7, 96 h
nuclear DNA levels [31] = assay: Cytotoxicity against human HepG2 cells assessed as inhibition of nuclear DNA levels at 50 uM measured on day 14 by RT-PCR method relative to nuclear beta-actin DNA levels; assay type: cell-based; settings: read-out: INH
HepG2 [32] = assay: Cytotoxicity against human HepG2 cells assessed as inhibition of nuclear DNA levels measured on day 14 by RT-PCR method; settings: HepG2, 336 h
Hepatitis C virus [33] = assay: Antiviral activity against HCV genotype 1b infected in human HuH7 cells assessed as inhibition of viral RNA replication after 96 hrs by RT-PCR method; assay type: functional, cell-based, Hepacivirus hominis; settings: Huh-7, 96 h

Chain of Cytochrome P450 3A4 (P08684 whole entry): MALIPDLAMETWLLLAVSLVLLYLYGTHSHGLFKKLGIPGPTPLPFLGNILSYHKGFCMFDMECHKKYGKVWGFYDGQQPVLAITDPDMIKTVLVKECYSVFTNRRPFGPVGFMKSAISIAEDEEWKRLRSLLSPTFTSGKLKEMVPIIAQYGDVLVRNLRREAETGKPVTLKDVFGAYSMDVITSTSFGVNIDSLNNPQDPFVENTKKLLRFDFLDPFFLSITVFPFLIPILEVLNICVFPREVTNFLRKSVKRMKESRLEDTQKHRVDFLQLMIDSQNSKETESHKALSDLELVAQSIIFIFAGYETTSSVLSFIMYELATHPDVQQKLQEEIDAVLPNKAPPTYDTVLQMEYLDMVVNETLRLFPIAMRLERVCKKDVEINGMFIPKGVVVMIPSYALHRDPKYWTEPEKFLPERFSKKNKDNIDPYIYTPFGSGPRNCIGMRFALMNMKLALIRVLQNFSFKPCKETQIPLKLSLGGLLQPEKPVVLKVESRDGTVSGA
Chain of Cytochrome P450 2D6 (P10635 whole entry): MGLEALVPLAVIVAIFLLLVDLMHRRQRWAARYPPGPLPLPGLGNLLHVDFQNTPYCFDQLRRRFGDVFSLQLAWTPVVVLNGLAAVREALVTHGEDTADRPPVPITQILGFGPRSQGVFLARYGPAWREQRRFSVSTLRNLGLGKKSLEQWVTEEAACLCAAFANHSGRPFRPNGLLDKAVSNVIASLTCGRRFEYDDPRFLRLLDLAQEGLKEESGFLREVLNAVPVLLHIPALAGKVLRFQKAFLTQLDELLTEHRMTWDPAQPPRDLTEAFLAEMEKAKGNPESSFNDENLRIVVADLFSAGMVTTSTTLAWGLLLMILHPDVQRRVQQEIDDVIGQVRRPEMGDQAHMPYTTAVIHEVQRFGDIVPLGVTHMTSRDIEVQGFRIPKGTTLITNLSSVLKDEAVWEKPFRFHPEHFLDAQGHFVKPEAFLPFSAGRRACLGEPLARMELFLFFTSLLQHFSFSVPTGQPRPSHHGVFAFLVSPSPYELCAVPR
Chain of Cytochrome P450 2C9 (P11712 whole entry): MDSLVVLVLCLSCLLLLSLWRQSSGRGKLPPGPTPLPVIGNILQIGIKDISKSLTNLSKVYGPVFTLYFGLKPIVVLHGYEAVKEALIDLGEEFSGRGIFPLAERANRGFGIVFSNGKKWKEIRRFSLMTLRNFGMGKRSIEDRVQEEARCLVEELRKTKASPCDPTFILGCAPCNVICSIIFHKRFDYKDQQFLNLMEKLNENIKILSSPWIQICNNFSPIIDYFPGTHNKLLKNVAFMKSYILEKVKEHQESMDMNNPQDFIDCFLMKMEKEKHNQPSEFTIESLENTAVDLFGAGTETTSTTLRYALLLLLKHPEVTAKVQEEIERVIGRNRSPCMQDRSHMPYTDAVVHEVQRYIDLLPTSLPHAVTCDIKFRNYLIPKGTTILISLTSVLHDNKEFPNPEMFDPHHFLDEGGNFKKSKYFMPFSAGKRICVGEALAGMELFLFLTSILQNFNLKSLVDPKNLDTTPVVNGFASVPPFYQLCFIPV
Chain of DNA-directed RNA polymerase, mitochondrial (Homo sapiens) (O00411 whole entry): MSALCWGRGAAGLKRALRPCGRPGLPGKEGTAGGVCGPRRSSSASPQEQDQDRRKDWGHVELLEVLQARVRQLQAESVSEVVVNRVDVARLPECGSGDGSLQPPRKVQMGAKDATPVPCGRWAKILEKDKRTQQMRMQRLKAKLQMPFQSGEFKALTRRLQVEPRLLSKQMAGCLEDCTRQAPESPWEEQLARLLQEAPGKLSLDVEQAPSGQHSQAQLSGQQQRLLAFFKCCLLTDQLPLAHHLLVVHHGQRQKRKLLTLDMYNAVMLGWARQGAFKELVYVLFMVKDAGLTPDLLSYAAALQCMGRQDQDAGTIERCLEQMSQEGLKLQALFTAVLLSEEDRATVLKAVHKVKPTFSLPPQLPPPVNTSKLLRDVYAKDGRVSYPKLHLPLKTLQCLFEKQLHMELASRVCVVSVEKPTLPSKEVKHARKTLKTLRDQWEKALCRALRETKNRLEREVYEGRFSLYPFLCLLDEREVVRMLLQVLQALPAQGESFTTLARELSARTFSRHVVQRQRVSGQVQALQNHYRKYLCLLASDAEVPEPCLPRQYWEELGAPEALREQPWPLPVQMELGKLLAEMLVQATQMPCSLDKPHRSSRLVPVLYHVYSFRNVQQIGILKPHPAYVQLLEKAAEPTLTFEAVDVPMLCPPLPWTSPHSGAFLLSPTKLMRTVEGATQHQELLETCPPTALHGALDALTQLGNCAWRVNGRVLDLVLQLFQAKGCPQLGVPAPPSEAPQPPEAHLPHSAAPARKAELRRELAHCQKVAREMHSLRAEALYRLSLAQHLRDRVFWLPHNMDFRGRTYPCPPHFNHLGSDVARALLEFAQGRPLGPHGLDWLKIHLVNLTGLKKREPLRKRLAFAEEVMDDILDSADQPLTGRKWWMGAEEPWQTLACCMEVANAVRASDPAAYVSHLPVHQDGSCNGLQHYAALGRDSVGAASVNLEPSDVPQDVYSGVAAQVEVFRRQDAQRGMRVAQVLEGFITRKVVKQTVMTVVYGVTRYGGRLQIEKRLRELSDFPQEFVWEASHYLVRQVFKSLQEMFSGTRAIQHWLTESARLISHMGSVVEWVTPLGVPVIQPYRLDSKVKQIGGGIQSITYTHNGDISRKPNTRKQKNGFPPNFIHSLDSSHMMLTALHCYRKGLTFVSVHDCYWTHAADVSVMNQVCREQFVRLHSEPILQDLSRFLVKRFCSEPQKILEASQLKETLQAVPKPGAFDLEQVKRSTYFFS

## O=c1ccn([C@@H]2O[C@H](COP(=O)(O)OP(=O)(O)OP(=O)(O)O)C(O)C2(F)Cl)c(=O)[nH]1 (single isomer, unassigned)
[1]
  IC50: 5.5 µM
DNA polymerase beta
  IC50: > 100 µM
[2]
  IC50: > 100 µM
[3]
  IC50: 8.6 µM
[4]
  IC50: 20.2 µM
[5]
  IC50: > 100 µM
[6]
  IC50: 6.1 µM
[7]
  Activity: 35%
[8]
  IC50: 13 µM

## CC(C)OC(=O)[C@H](C)N[P@](=O)(OC[C@H]1O[C@@H](n2ccc(=O)[nH]c2=O)[C@](C)(F)[C@@H]1O)Oc1ccccc1 [SOFOSBUVIR]
Cytochrome P450 2D6
  IC50: > 100 µM
[9]
  inhibition at 14 days, 10 µM: < 1%
Hepatitis C virus [10]
  IC50: 0.09 µM
[11]
  IC50 at 14 days: > 50 µM
[12]
  inhibition at 14 days, 25 µM: < 1%
HepG2 [13]
  Activity: 187%
[14]
  CC50 at 72 h: > 100 µM
Hepatitis C virus [15]
  IC50: 0.06 µM
[16]
  CC50 at 96 h: > 10 µM
HepG2 [17]
  Activity: 255%
[18]
  CC50 at 120 h: > 100 µM
Nuclear DNA levels [19]
  cytotoxicity at 14 days, 10 µM: 7.3%
Hepatitis C virus [20]
  IC50: 0.07 µM
Hepatitis C virus [21]
  EC50: 0.09 to 0.2 µM
  EC90: 0.3 to 0.5 µM
Hepatitis C virus [22]
  EC50: 0.4 µM
  EC90: 1 µM
[23]
  CC50 at 96 h: > 100 µM
Cytochrome P450 3A4
  IC50: 8.4 µM
HepG2 [24]
  Activity: 176%
Nuclear DNA levels [25]
  cytotoxicity at 14 days, 25 µM: 38.3%
Hepatitis C virus [26]
  Selectivity ratio: 3
[27]
  inhibition at 14 days, 50 µM: < 1%
Hepatitis C virus [28]
  IC50: 0.04 µM
Cytochrome P450 1A2
  IC50: > 100 µM
Cytochrome P450 2C9
  IC50: 60 µM
Hepatitis C virus [29]
  Ratio EC50: 4.4
Hepatitis C virus [30]
  IC50: 0.02 µM
Nuclear DNA levels [31]
  cytotoxicity at 14 days, 50 µM: 38.8%
HepG2 [32]
  IC50: > 50 µM
Hepatitis C virus [33]
  IC50: 0.06 µM
